Like-named read-outs stand apart in the source and are kept apart here.
Columns and labels:
[1] = test system: T-Rex 293 cell line SC3 cells having increased expression of androgen receptor protein due to exposure to doxycycline; experiment: Cellular growth inhibition assay, T-Rex 293 SC3 cells with doxycycline (CellTiter-Glo, 72 hours); assay type: cell-based; conditions: T-Rex 293 SC3 cells with increased androgen receptor expression due to doxycycline (10 ng/mL)
Outline: (§1)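 Growth inhibition is measured in an inducible AR-expressing T-Rex 293 clone, SC3, cultured with or without 10 ng/mL doxycycline in hormone-depleted medium. Test compounds are applied for 72 hours. GI50 values derive from CellTiter-Glo 2.0 signal fitted by four-parameter regression.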

[2] = test system: T-Rex 293 cell line SC3 cells lacking increased expression of androgen receptor protein; experiment: Cellular growth inhibition assay, T-Rex 293 SC3 cells without doxycycline (CellTiter-Glo, 72 hours); assay type: cell-based; conditions: T-Rex 293 cell line SC3 cells not exposed to doxycycline (lacking increased androgen receptor expression)
Outline: as §1

VCaP cells = experiment: Cellular growth inhibition assay for VCaP cells (CellTiter-Glo, 72 hours); assay type: cell-based, human
Outline: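 Luminescent viability signal after 72 h of compound exposure gave GI50 values by four-parameter nonlinear regression. Compounds were added in 0.5% DMSO to cells plated 24 h earlier at 5000/well in DMEM containing 10% FBS.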

## Cc1sc2c(c1C)C(c1ccc(OC3CCC4(CCCN(c5ccc(C(=O)N[C@H]6CC[C@H](Oc7ccc(C#N)c(Cl)c7)CC6)nn5)C4)C3)cc1)=N[C@@H](C)c1nnc(C)n1-2 (stereo partly drawn) [I-536]
[1]; 72 h
  GI50: < 500 nM
[2]; 72 h
  GI50: > 3000 nM
VCaP cells
  GI50: > 3000 nM

## Cc1sc2c(c1C)C(c1ccc(OC3CCC4(CCCN(c5ccc(C(=O)N[C@H]6CC[C@H](Oc7ccc(C#N)c(Cl)c7)CC6)nn5)C4)C3)cc1)=N[C@@H](C)c1nnc(C)n1-2 (stereo partly drawn) [I-537]
[1]
  GI50: < 500 nM
[2]
  GI50: > 3000 nM
VCaP cells
  GI50: > 3000 nM

## Cc1sc2c(c1C)C(c1ccc(OC3CCC4(CCCN(c5ccc(C(=O)N[C@H]6CC[C@H](Oc7ccc(C#N)c(Cl)c7)CC6)nn5)C4)C3)cc1)=N[C@@H](C)c1nnc(C)n1-2 (stereo partly drawn) [I-538]
[1]
  GI50: < 500 nM
[2]
  GI50: > 3000 nM
VCaP cells
  GI50: < 500 nM

## Cc1sc2c(c1C)C(c1ccc(OC3CCC4(C3)CN(c3ccc(C(=O)N[C@H]5CC[C@H](Oc6ccc(C#N)c(Cl)c6)CC5)nn3)CCO4)cc1)=N[C@@H](C)c1nnc(C)n1-2 (stereo partly drawn) [I-539]
[1]; 72 h
  GI50: < 500 nM
[2]
  GI50: > 3000 nM
VCaP cells
  GI50: 500 to 1500 nM

## Cc1sc2c(c1C)C(c1ccc(OC3CCC4(C3)CN(c3ccc(C(=O)N[C@H]5CC[C@H](Oc6ccc(C#N)c(Cl)c6)CC5)nn3)CCO4)cc1)=N[C@@H](C)c1nnc(C)n1-2 (stereo partly drawn) [I-540]
[1]
  GI50: < 500 nM
[2]
  GI50: < 500 nM
VCaP cells
  GI50: 1500 to 3000 nM

## Cc1sc2c(c1C)C(c1ccc(OC3CCC4(C3)CN(c3ccc(C(=O)N[C@H]5CC[C@H](Oc6ccc(C#N)c(Cl)c6)CC5)nn3)CCO4)cc1)=N[C@@H](C)c1nnc(C)n1-2 (stereo partly drawn) [I-541]
[1]
  GI50: < 500 nM
[2]
  GI50: < 500 nM
VCaP cells
  GI50: > 3000 nM

## Cc1sc2c(c1C)C(c1ccc(OC3CCC4(C3)CN(c3ccc(C(=O)N[C@H]5CC[C@H](Oc6ccc(C#N)c(Cl)c6)CC5)nn3)CCO4)cc1)=N[C@@H](C)c1nnc(C)n1-2 (stereo partly drawn) [I-542]
[1]
  GI50: < 500 nM
[2]
  GI50: < 500 nM
VCaP cells
  GI50: 1500 to 3000 nM

## Cc1sc2c(c1C)C(c1ccc(OC3CC(CC4CCN(c5ccc(C(=O)N[C@H]6CC[C@H](Oc7ccc(C#N)c(Cl)c7)CC6)nn5)CC4)C3)cc1)=N[C@@H](C)c1nnc(C)n1-2 (stereo partly drawn) [I-543]
[1]; 72 h
  GI50: < 500 nM
[2]; 72 h
  GI50: > 3000 nM
VCaP cells; Homo sapiens, VCaP, 72 h
  GI50: < 500 nM

## Cc1sc2c(c1C)C(c1ccc(OC3CC(CC4CCN(c5ccc(C(=O)N[C@H]6CC[C@H](Oc7ccc(C#N)c(Cl)c7)CC6)nn5)CC4)C3)cc1)=N[C@@H](C)c1nnc(C)n1-2 (stereo partly drawn) [I-544]
[1]
  GI50: < 500 nM
[2]
  GI50: > 3000 nM
VCaP cells
  GI50: < 500 nM

## Cc1sc2c(c1C)C(c1ccc(N3CC4(CC(C#Cc5ccc(C(=O)N[C@H]6CC[C@H](Oc7ccc(C#N)c(Cl)c7)CC6)nn5)C4)C3)cc1)=N[C@@H](Cc1ncco1)c1nnc(C)n1-2 [I-545]
[1]; 72 h
  GI50: < 500 nM
[2]; 72 h
  GI50: < 500 nM
VCaP cells; Homo sapiens, VCaP, 72 h
  GI50: < 500 nM

## Cc1sc2c(c1C)C(c1ccc(C#CC3CCC(Cc4ccc(C(=O)N[C@H]5CC[C@H](Oc6ccc(C#N)c(Cl)c6)CC5)nn4)CC3)cc1)=N[C@@H](Cc1ncco1)c1nnc(C)n1-2 (stereo partly drawn) [I-546]
[1]; 72 h
  GI50: < 500 nM
[2]; 72 h
  GI50: < 500 nM
VCaP cells; Homo sapiens, VCaP, 72 h
  GI50: 500 to 1500 nM

## Cc1sc2c(c1C)C(c1ccc(CCC3CC4(CCCN(c5ccc(C(=O)N[C@H]6CC[C@H](Oc7ccc(C#N)c(Cl)c7)CC6)nn5)C4)C3)cc1)=NCc1nnc(C)n1-2 (stereo partly drawn) [I-548]
[1]; 72 h
  GI50: < 500 nM
[2]; 72 h
  GI50: < 500 nM
VCaP cells; Homo sapiens, VCaP, 72 h
  GI50: 1500 to 3000 nM

## Cc1sc2c(c1C)C(c1ccc(N3CCC4CN(c5ccc(C(=O)N[C@H]6CC[C@H](Oc7ccc(C#N)c(Cl)c7)CC6)nn5)CCC4C3)cc1)=NC1(CC1)c1nnc(C)n1-2 (stereo partly drawn) [I-549]
[1]; 72 h
  GI50: < 500 nM
[2]
  GI50: < 500 nM
VCaP cells
  GI50: > 3000 nM

## Cc1sc2c(c1C)C(c1ccc(N3CC(C4CCN(c5ccc(C(=O)N[C@H]6CC[C@H](Oc7ccc(C#N)c(Cl)c7)CC6)nn5)C4)C3)cc1)=NC1(CC1)c1nnc(C)n1-2 (stereo partly drawn) [I-550]
[1]; 72 h
  GI50: < 500 nM
[2]
  GI50: < 500 nM
VCaP cells; Homo sapiens, VCaP, 72 h
  GI50: < 500 nM

## Cc1sc2c(c1C)C(c1ccc(N3CC(C4CCN(c5ccc(C(=O)N[C@H]6CC[C@H](Oc7ccc(C#N)c(Cl)c7)CC6)nn5)C4)C3)cc1)=NC1(CC1)c1nnc(C)n1-2 (stereo partly drawn) [I-551]
[1]
  GI50: < 500 nM
[2]
  GI50: > 3000 nM
VCaP cells
  GI50: < 500 nM

## Cc1sc2c(c1C)C(c1ccc(C3CN(C4CCN(c5ccc(C(=O)N[C@H]6CC[C@H](Oc7ccc(C#N)c(Cl)c7)CC6)nn5)CC4)C3)cc1)=NC1(CC1)c1nnc(C)n1-2 [I-552]
[1]; 72 h
  GI50: < 500 nM
[2]; 72 h
  GI50: 1500 to 3000 nM
VCaP cells; Homo sapiens, VCaP, 72 h
  GI50: > 3000 nM

## Cc1sc2c(c1C)C(c1ccc(C3CCC4(CCN(c5ccc(C(=O)N[C@H]6CC[C@H](Oc7ccc(C#N)c(Cl)c7)CC6)nn5)CC4)C3)nc1)=N[C@@H](C)c1nnc(C)n1-2 (stereo partly drawn) [I-553]
[1]; 72 h
  GI50: < 500 nM
[2]
  GI50: < 500 nM
VCaP cells
  GI50: < 500 nM

## Cc1sc2c(c1C)C(c1ccc(N3CCC4CN(c5ccc(C(=O)N[C@H]6CC[C@H](Oc7ccc(C#N)c(Cl)c7)CC6)nn5)CCC4C3)cc1)=N[C@@H](C)c1nnc(C)n1-2 (stereo partly drawn) [I-554]
[1]; 72 h
  GI50: < 500 nM
[2]
  GI50: > 3000 nM
VCaP cells; Homo sapiens, VCaP, 72 h
  GI50: 500 to 1500 nM

## Cc1sc2c(c1C)C(c1ccc(N3CC(C4CCN(c5ccc(C(=O)N[C@H]6CC[C@H](Oc7ccc(C#N)c(Cl)c7)CC6)nn5)C4)C3)cc1)=N[C@@H](C)c1nnc(C)n1-2 (stereo partly drawn) [I-555]
[1]; 72 h
  GI50: < 500 nM
[2]; 72 h
  GI50: < 500 nM
VCaP cells; Homo sapiens, VCaP, 72 h
  GI50: < 500 nM

## Cc1sc2c(c1C)C(c1ccc(N3CC(C4CCN(c5ccc(C(=O)N[C@H]6CC[C@H](Oc7ccc(C#N)c(Cl)c7)CC6)nn5)C4)C3)cc1)=N[C@@H](C)c1nnc(C)n1-2 (stereo partly drawn) [I-556]
[1]
  GI50: < 500 nM
[2]
  GI50: < 500 nM
VCaP cells
  GI50: < 500 nM

## Cc1sc2c(c1C)C(c1ccc(COC3CCC4(C3)CN(c3ccc(C(=O)N[C@H]5CC[C@H](Oc6ccc(C#N)c(Cl)c6)CC5)nn3)CCO4)cc1)=N[C@@H](C)c1nnc(C)n1-2 (stereo partly drawn) [I-557]
[1]; 72 h
  GI50: < 500 nM
[2]
  GI50: < 500 nM
VCaP cells; Homo sapiens, VCaP, 72 h
  GI50: < 500 nM

## Cc1sc2c(c1C)C(c1ccc(COC3CCC4(C3)CN(c3ccc(C(=O)N[C@H]5CC[C@H](Oc6ccc(C#N)c(Cl)c6)CC5)nn3)CCO4)cc1)=N[C@@H](C)c1nnc(C)n1-2 (stereo partly drawn) [I-558]
[1]
  GI50: < 500 nM
[2]
  GI50: < 500 nM
VCaP cells
  GI50: < 500 nM

## Cc1sc2c(c1C)C(c1ccc(COC3CCC4(C3)CN(c3ccc(C(=O)N[C@H]5CC[C@H](Oc6ccc(C#N)c(Cl)c6)CC5)nn3)CCO4)cc1)=N[C@@H](C)c1nnc(C)n1-2 (stereo partly drawn) [I-559]
[1]
  GI50: < 500 nM
[2]
  GI50: < 500 nM
VCaP cells
  GI50: < 500 nM

## Cc1sc2c(c1C)C(c1ccc(C3CN(C4CCN(c5ccc(C(=O)N[C@H]6CC[C@H](Oc7ccc(C#N)c(Cl)c7)CC6)nn5)CC4)C3)cc1)=N[C@@H](C)c1nnc(C)n1-2 [I-560]
[1]; 72 h
  GI50: < 500 nM
[2]; 72 h
  GI50: < 500 nM
VCaP cells; Homo sapiens, VCaP, 72 h
  GI50: 1500 to 3000 nM

## Cc1sc2c(c1C)C(c1ccc(OCC3CC4(CCCN(c5ccc(C(=O)N[C@H]6CC[C@H](Oc7ccc(C#N)c(Cl)c7)CC6)nn5)C4)C3)cn1)=NC1(CC1)c1nnc(C)n1-2 (stereo partly drawn) [I-561]
[1]; 72 h
  GI50: < 500 nM
[2]
  GI50: 500 to 1500 nM
VCaP cells
  GI50: > 3000 nM

## Cc1sc2c(c1C)C(c1ccc(N3CC(CC4CCCN(c5ccc(C(=O)N[C@H]6CC[C@H](Oc7ccc(C#N)c(Cl)c7)CC6)nn5)C4)C3)cc1)=NC1(CC1)c1nnc(C)n1-2 (stereo partly drawn) [I-562]
[1]
  GI50: < 500 nM
[2]; 72 h
  GI50: < 500 nM
VCaP cells
  GI50: > 3000 nM

## Cc1sc2c(c1C)C(c1ccc(N3CCC4CN(c5ccc(C(=O)N[C@H]6CC[C@H](Oc7ccc(C#N)c(Cl)c7)CC6)nn5)CCC4C3)cc1)=NC1(CC1)c1nnc(C)n1-2 (stereo partly drawn) [I-563]
[1]
  GI50: < 500 nM
[2]; 72 h
  GI50: < 500 nM
VCaP cells
  GI50: 500 to 1500 nM

## Cc1sc2c(c1C)C(c1ccc(N3CCC4CN(c5ccc(C(=O)N[C@H]6CC[C@H](Oc7ccc(C#N)c(Cl)c7)CC6)nn5)CCC4C3)cc1)=NC1(CC1)c1nnc(C)n1-2 (stereo partly drawn) [I-564]
[1]
  GI50: < 500 nM
[2]
  GI50: 500 to 1500 nM
VCaP cells
  GI50: > 3000 nM

## Cc1sc2c(c1C)C(c1ccc(N3CCC4CN(c5ccc(C(=O)N[C@H]6CC[C@H](Oc7ccc(C#N)c(Cl)c7)CC6)nn5)CCC4C3)cc1)=NC1(CC1)c1nnc(C)n1-2 (stereo partly drawn) [I-565]
[1]
  GI50: < 500 nM
[2]
  GI50: < 500 nM
VCaP cells
  GI50: > 3000 nM

## COC[C@@H]1N=C(c2ccc(N3CCC4(CC3)CCN(c3ccc(C(=O)N[C@H]5CC[C@H](Oc6ccc(C#N)c(Cl)c6)CC5)nn3)C4)cc2)c2c(sc(C)c2C)-n2c(C)nnc21 [I-566]
[1]; 72 h
  GI50: < 500 nM
[2]; 72 h
  GI50: < 500 nM
VCaP cells; Homo sapiens, VCaP, 72 h
  GI50: < 500 nM

## COCC[C@@H]1N=C(c2ccc(N3CCC4(CC3)CCN(c3ccc(C(=O)N[C@H]5CC[C@H](Oc6ccc(C#N)c(Cl)c6)CC5)nn3)C4)cc2)c2c(sc(C)c2C)-n2c(C)nnc21 [I-567]
[1]; 72 h
  GI50: < 500 nM
[2]; 72 h
  GI50: < 500 nM
VCaP cells; Homo sapiens, VCaP, 72 h
  GI50: < 500 nM
